Experimental findings from ChEMBL document CHEMBL1201862, “PubChem BioAssay data set” (2004) are described below.

Test systems include CAKI-1; CCRF-CEM; HCT-15; K562; M14; MCF7; MDA-MB-231; MOLT-4; NCI-H226; NCI-H460; OVCAR-4; OVCAR-8; RXF 393; SF-539; SK-MEL-2; SK-MEL-5; SK-OV-3; SR; UACC-257; UO-31.
Common to all, as to assay: inhibition of tumour cell growth, NCI panel, 48 h

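Five compound concentrations were applied to cells in 96-well plates for 48 hours; endpoints were derived by simple linear interpolation of the resulting dose-response curve. GI50: concentration for 50% inhibition of growth.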 Activity calls are given as the source filed them. No stated cut-off is given here; in the data, active = GI50 up to about 1.1 µM and inactive = higher.

For the molecule `Cc1ccccc1NC(=S)N/N=C1\C(=O)Nc2ccccc21`, the GI50 is > 100 µM (inactive) with CAKI-1; > 100 µM (inactive) with CCRF-CEM; more than 100 µM in the experiment on HCT-15; > 100 µM (inactive) in the experiment with K562; > 100 µM (inactive) in the experiment on M14; > 100 µM (inactive) in the experiment on MCF7. The GI50 with MDA-MB-231, in the experiment with MOLT-4, with NCI-H226, in the experiment on NCI-H460, in the experiment with OVCAR-4 and with OVCAR-8 was > 100 µM (inactive) each time. Moreover, the GI50 in the experiment on RXF 393 is > 100 µM (inactive); with SF-539, > 100 µM (inactive); in the experiment with SK-MEL-2 it was > 100 µM (inactive); in the experiment on SK-MEL-5, > 100 µM (inactive); in the experiment on SK-OV-3, > 100 µM (inactive); in the experiment on SR, 70.6 µM (inactive). The GI50 with UACC-257 and in the experiment on UO-31 was > 100 µM (inactive) each time.
As to `COc1ccc2c(CCNS(=O)(=O)c3ccccc3)c(C(C)=O)[nH]c2c1`, the GI50 in the experiment with CAKI-1 was 1 µM (active); in the experiment on CCRF-CEM it was > 65.2 µM (inactive); with HCT-15, more than 75.2 µM; in the experiment with K562, > 74 µM (inactive); in the experiment with M14, > 64.4 µM (inactive); in the experiment on MCF7, 51.4 µM (inactive). In addition, the GI50 with MDA-MB-231 was > 85.5 µM (inactive); with MOLT-4, 48.8 µM (inactive); in the experiment with NCI-H226, > 100 µM (inactive); in the experiment on NCI-H460, > 100 µM (inactive); in the experiment on OVCAR-4, 51.6 µM (inactive); with OVCAR-8 it was > 69.3 µM (inactive). In addition, the GI50 was > 100 µM (inactive) in the experiment on RXF 393; 82.4 µM (inactive) with SF-539; > 100 µM (inactive) in the experiment with SK-MEL-2; > 42.8 µM (inactive) in the experiment with SK-MEL-5; > 80.9 µM (inactive) in the experiment on SK-OV-3; 64.6 µM (inactive) in the experiment on SR. In addition, the values for the GI50 with UACC-257 and in the experiment on UO-31 were > 32.4 µM (inactive) and 9.51 µM (inactive), respectively.
In the case of `O=C1C=C(Nc2ccccc2C(=O)CC(=O)C(=O)Nc2cccc(C(F)(F)F)c2)c2ccccc2C1=O`, the GI50 in the experiment with CAKI-1 was 64 µM (inactive); in the experiment on CCRF-CEM, 4.37 µM (inactive); in the experiment with HCT-15, 19.5 µM; in the experiment with K562, 8.32 µM (inactive); with M14, 16.6 µM (inactive); in the experiment on MCF7, 15.2 µM (inactive). The GI50 in the experiment on MDA-MB-231 is 20 µM (inactive); with MOLT-4 it was 4.83 µM (inactive); in the experiment with NCI-H226, 61.5 µM (inactive); in the experiment with NCI-H460, 27.7 µM (inactive); in the experiment with OVCAR-4, 17.9 µM (inactive); with OVCAR-8, 17.3 µM (inactive). Besides, the GI50 was 20.8 µM (inactive) in the experiment on RXF 393; 22.5 µM (inactive) in the experiment with SF-539; 16.8 µM (inactive) in the experiment on SK-MEL-2; 15.8 µM (inactive) in the experiment on SK-MEL-5; 61.4 µM (inactive) with SK-OV-3; 8.85 µM (inactive) in the experiment with SR. In addition, the GI50 was 15.3 µM (inactive) in the experiment with UACC-257 and 31.2 µM (inactive) with UO-31.
On to `CC(=O)CC1(CBr)Nc2ccc([N+](=O)[O-])cc2NC1=O` (stereo not given), for which the GI50 in the experiment on CAKI-1 was > 100 µM (inactive); with CCRF-CEM, 45.2 µM (inactive); with HCT-15, 82.6 µM; in the experiment on K562 it was 83.8 µM (inactive); in the experiment with M14 it was > 100 µM (inactive); in the experiment on MCF7, 40.9 µM (inactive). In addition, the GI50 in the experiment with MDA-MB-231 is > 100 µM (inactive); in the experiment on MOLT-4 it was 42.9 µM (inactive); in the experiment with NCI-H226, > 100 µM (inactive); in the experiment with NCI-H460, > 100 µM (inactive); in the experiment with OVCAR-4, 81.8 µM (inactive); in the experiment on OVCAR-8 it was > 100 µM (inactive). In addition, the GI50 with RXF 393 is 32.7 µM (inactive); with SF-539 it was 44.1 µM (inactive); in the experiment on SK-MEL-2 it was > 100 µM (inactive); in the experiment on SK-MEL-5, > 100 µM (inactive); in the experiment on SK-OV-3, > 100 µM (inactive); in the experiment on SR, 34 µM (inactive). In addition, the figures for the GI50 in the experiment on UACC-257 and with UO-31 were > 100 µM (inactive) and 61.9 µM (inactive), respectively.
For the molecule `CCCCCCCCCCCCCCCCNc1ccc2c(c1)OCCOCCOCCOCCO2`, the GI50 was 4 µM (inactive) in the experiment on CAKI-1; 2.19 µM (inactive) in the experiment with CCRF-CEM; 2.88 µM in the experiment with HCT-15; 4.2 µM (inactive) in the experiment on K562; 3.79 µM (inactive) with M14; 3.61 µM (inactive) in the experiment on MCF7. Moreover, the GI50 is 2.91 µM (inactive) in the experiment on MDA-MB-231; 2.5 µM (inactive) with MOLT-4; 1.77 µM (inactive) in the experiment with NCI-H226; 3.1 µM (inactive) with NCI-H460; 4.02 µM (inactive) in the experiment on OVCAR-4; 2.68 µM (inactive) in the experiment with OVCAR-8. For the same molecule, the GI50 with RXF 393 was 2.3 µM (inactive); in the experiment on SF-539, 2.32 µM (inactive); with SK-MEL-2 it was 2.25 µM (inactive); with SK-MEL-5, 2.25 µM (inactive); with SK-OV-3 it was 3.4 µM (inactive); in the experiment on SR, 3.29 µM (inactive). Besides, the GI50 in the experiment on UACC-257 is 2.56 µM (inactive); with UO-31, 2.77 µM (inactive).
For `Cc1c(C)c2c(c(N)c1C#N)C(=O)N(Cc1ccc(S(N)(=O)=O)cc1)C2=O`, the GI50 with CAKI-1 is > 100 µM (inactive); with CCRF-CEM, > 100 µM (inactive); in the experiment on HCT-15, more than 72.9 µM; in the experiment on K562 it was > 100 µM (inactive); in the experiment with M14 it was 25.9 µM (inactive); in the experiment on MCF7, > 75 µM (inactive). Moreover, the GI50 in the experiment with MDA-MB-231 is 19.7 µM (inactive); with MOLT-4 it was > 100 µM (inactive); with NCI-H226, > 30.5 µM (inactive); in the experiment on NCI-H460, > 100 µM (inactive); in the experiment with OVCAR-4, > 100 µM (inactive); in the experiment on OVCAR-8, 4.65 µM (inactive). Further, the GI50 in the experiment on RXF 393 is 7.46 µM (inactive); in the experiment on SF-539 it was > 34.4 µM (inactive); in the experiment with SK-MEL-2 it was > 50.1 µM (inactive); in the experiment on SK-MEL-5, > 100 µM (inactive); in the experiment on SK-OV-3, 4.43 µM (inactive); in the experiment on SR, > 100 µM (inactive). The GI50 is > 100 µM (inactive) in the experiment with UACC-257 and 97.9 µM (inactive) in the experiment with UO-31.
As for `CN(C)CC1(Cc2ccccc2)CCC(Cc2ccccc2)C1=O` (stereo not given), the GI50 was 13.3 µM (inactive) in the experiment with CAKI-1; 2.79 µM (inactive) in the experiment on CCRF-CEM; 5.21 µM in the experiment on HCT-15; 2.79 µM (inactive) with K562; 10.1 µM (inactive) with M14; 5.15 µM (inactive) in the experiment with MCF7. The GI50 in the experiment on MDA-MB-231 was 11.2 µM (inactive); with MOLT-4, 2.88 µM (inactive); in the experiment on NCI-H226, 20.1 µM (inactive); in the experiment on NCI-H460, 12.2 µM (inactive); with OVCAR-4, 16.3 µM (inactive); with OVCAR-8, 5.73 µM (inactive). Further, the GI50 in the experiment with RXF 393 was 13.9 µM (inactive); in the experiment on SF-539, 18.1 µM (inactive); with SK-MEL-2 it was 12.2 µM (inactive); with SK-MEL-5, 13.7 µM (inactive); in the experiment with SK-OV-3 it was 21.8 µM (inactive); with SR, 4.47 µM (inactive). The GI50 in the experiment on UACC-257 is 14.9 µM (inactive); in the experiment on UO-31, 16.9 µM (inactive).
For the molecule `O=[N+]([O-])c1ccc(Cl)c(/C=N/C23CC4CC(CC(C4)C2)C3)c1`, the GI50 is > 10 µM (inactive) with CAKI-1; 3.8 µM (inactive) in the experiment with CCRF-CEM; more than 6.46 µM in the experiment on HCT-15; 2.89 µM (inactive) in the experiment with K562; > 6.22 µM (inactive) in the experiment on M14; 3.08 µM (inactive) with MCF7. The GI50 in the experiment on MDA-MB-231 is > 10 µM (inactive); in the experiment on MOLT-4, 5.18 µM (inactive); in the experiment with NCI-H226, > 10 µM (inactive); in the experiment with NCI-H460, > 10 µM (inactive); with OVCAR-4, > 10 µM (inactive); with OVCAR-8, 4 µM (inactive). Also, the GI50 in the experiment on RXF 393 is > 10 µM (inactive); with SF-539, 5.33 µM (inactive); in the experiment on SK-MEL-2 it was > 10 µM (inactive); with SK-MEL-5 it was 3.5 µM (inactive); with SK-OV-3 it was > 10 µM (inactive); with SR, 4.1 µM (inactive). The GI50 with UACC-257 and in the experiment on UO-31 was > 10 µM (inactive) each time.
For the molecule `COc1ccc(/C=N/Nc2nc3ccccc3c(=O)n2-c2ccccc2)cc1`, the GI50 with CAKI-1 was > 100 µM (inactive); with CCRF-CEM, > 100 µM (inactive); with HCT-15, more than 100 µM; in the experiment with K562 it was > 100 µM (inactive); with M14 it was > 100 µM (inactive); in the experiment on MCF7 it was 3.61 µM (inactive). Moreover, the GI50 is > 100 µM (inactive) with MDA-MB-231; > 100 µM (inactive) in the experiment on MOLT-4; > 100 µM (inactive) in the experiment with NCI-H226; 28.2 µM (inactive) in the experiment on NCI-H460; > 100 µM (inactive) in the experiment with OVCAR-4; > 100 µM (inactive) with OVCAR-8. Moreover, the GI50 was > 100 µM (inactive) in the experiment with RXF 393; > 100 µM (inactive) in the experiment with SF-539; > 100 µM (inactive) in the experiment with SK-MEL-2; > 100 µM (inactive) with SK-MEL-5; > 100 µM (inactive) in the experiment with SK-OV-3; 60.7 µM (inactive) in the experiment on SR. Moreover, the GI50 in the experiment on UACC-257 is > 100 µM (inactive); with UO-31, 2.28 µM (inactive).
For the molecule `CCOC(=O)/C=C\C(C#N)(C#N)/N=C/c1ccsc1`, the GI50 with CAKI-1 is 2.25 µM (inactive); in the experiment on CCRF-CEM, 0.207 µM (active); with HCT-15 it was 2.96 µM; in the experiment on K562, 3.13 µM (inactive); with M14 it was 3.08 µM (inactive); in the experiment on MCF7, 2.51 µM (inactive). For the same molecule, the GI50 is 16.3 µM (inactive) in the experiment with MDA-MB-231; 1.21 µM (inactive) with MOLT-4; 14.8 µM (inactive) with NCI-H226; 20.5 µM (inactive) in the experiment with NCI-H460; 6.43 µM (inactive) with OVCAR-4; 3.86 µM (inactive) in the experiment with OVCAR-8. Besides, the GI50 in the experiment with RXF 393 is 2.26 µM (inactive); in the experiment with SF-539, 6.55 µM (inactive); in the experiment on SK-MEL-2, 17.7 µM (inactive); in the experiment on SK-MEL-5 it was 20 µM (inactive); in the experiment on SK-OV-3 it was 20.8 µM (inactive); in the experiment with SR, 1.04 µM (active). The values for the GI50 in the experiment on UACC-257 and with UO-31 were 6.81 µM (inactive) and 2.7 µM (inactive), respectively.
